Experimental data as given in patent US12540141B2, “Spiropyrrolidine derived antiviral agents” (priority 2020, dated 2026).

target: SARS-CoV-2 3CL-protease (Severe acute respiratory syndrome coronavirus 2, UniProt P0DTD1); assay: SARS-CoV-2 3C-Like (3CL) Protease Fluorescence Assay (FRET); type: biochemical; details: SARS-CoV-2 3CL-protease 10 nM, 30 min preincubation at RT, substrate 40 μM

Row | Compound | IC50
1 | CC(C)C[C@@H](C(=O)N1C[C@]2(C[C@H]1C#N)C(=O)Nc1ccc(NC(=O)C3(F)CC3)cc12)N(C)C(=O)c1cc2c(F)cc(F)cc2[nH]1 [Example 504, N—((S)-1-((3R,5′S)-5′-cyano-5-(1-fluorocyclopropane-1-carboxamido)-2-oxospiro[indoline-3,3′-pyrrolidin]-1′-yl)-4-methyl-1-oxopentan-2-yl)-4,6-difluoro-N-methyl-1H-indole-2-carboxamide] | < 100 nM
2 | CC(C)C[C@@H](C(=O)N1C[C@]2(C[C@H]1C#N)C(=O)Nc1ccc(-n3cc(C4CC4)nn3)cc12)N(C)C(=O)c1cc2c(F)cc(F)cc2[nH]1 [Example 505, N—((S)-1-((3R,5′S)-5′-cyano-5-(4-cyclopropyl-1H-1,2,3-triazol-1-yl)-2-oxospiro[indoline-3,3′-pyrrolidin]-1′-yl)-4-methyl-1-oxopentan-2-yl)-4,6-difluoro-N-methyl-1H-indole-2-carboxamide] | < 100 nM
3 | CC(C)C[C@@H](C(=O)N1C[C@]2(C[C@H]1C#N)C(=O)Nc1ccc(-c3cccnc3)cc12)N(C)C(=O)c1cc2c(F)cc(F)cc2[nH]1 [Example 506] | < 100 nM
4 | CC(C)C[C@@H](C(=O)N1C[C@]2(C[C@H]1C#N)C(=O)Nc1ccc(-c3cn(-c4ccccn4)nn3)cc12)N(C)C(=O)c1cc2c(F)cc(F)cc2[nH]1 [Example 507] | < 100 nM
5 | CC(C)C[C@@H](C(=O)N1C[C@]2(C[C@H]1C#N)C(=O)Nc1ccc(Br)cc12)N(C)C(=O)c1cc2c(F)cc(F)cc2[nH]1 [Example 508] | < 100 nM
6 | CC(C)C[C@@H](C(=O)N1C[C@]2(C[C@H]1C#N)C(=O)Nc1ccc(C#C[Si](C)(C)C)cc12)N(C)C(=O)c1cc2c(F)cc(F)cc2[nH]1 [Example 509] | < 100 nM
7 | CC(C)C[C@@H](C(=O)N1C[C@]2(C[C@H]1C#N)C(=O)Nc1ccc(-c3ccncc3)cc12)N(C)C(=O)c1cc2c(F)cc(F)cc2[nH]1 [Example 510] | < 100 nM
8 | CC(C)C[C@@H](C(=O)N1C[C@]2(C[C@H]1C#N)C(=O)Nc1ccc(-c3ccc(F)cc3)cc12)N(C)C(=O)c1cc2c(F)cc(F)cc2[nH]1 [Example 511] | < 100 nM
9 | CC(C)C[C@@H](C(=O)N1C[C@]2(C[C@H]1C#N)C(=O)Nc1ccc(-c3ccoc3)cc12)N(C)C(=O)c1cc2c(F)cc(F)cc2[nH]1 [Example 512] | < 100 nM
10 | CC(C)C[C@@H](C(=O)N1C[C@]2(C[C@H]1C#N)C(=O)Nc1ccc(-c3ccsc3)cc12)N(C)C(=O)c1cc2c(F)cc(F)cc2[nH]1 [Example 513] | < 100 nM
11 | CC(C)C[C@@H](C(=O)N1C[C@]2(C[C@H]1C#N)C(=O)Nc1ccc(-c3ccn(C(F)F)n3)cc12)N(C)C(=O)c1cc2c(F)cc(F)cc2[nH]1 [Example 514] | < 100 nM
12 | CC(C)C[C@@H](C(=O)N1C[C@]2(C[C@H]1C#N)C(=O)Nc1ccc(-c3cnoc3)cc12)N(C)C(=O)c1cc2c(F)cc(F)cc2[nH]1 [Example 515] | < 100 nM
13 | CC(C)C[C@@H](C(=O)N1C[C@]2(C[C@H]1C#N)C(=O)Nc1ccc(-c3ccccn3)cc12)N(C)C(=O)c1cc2c(F)cc(F)cc2[nH]1 [Example 516] | < 100 nM
14 | CC(C)C[C@@H](C(=O)N1C[C@]2(C[C@H]1C#N)C(=O)Nc1ccc(Br)cc12)N(C)C(=O)OCc1ccccc1 [Example 517, benzyl ((S)-1-((3R,5′S)-5-bromo-5′-cyano-2-oxospiro[indoline-3,3′-pyrrolidin]-1′-yl)-4-methyl-1-oxopentan-2-yl)(methyl)carbamate] | < 100 nM
15 | Cc1ccc2c(c1)[C@@]1(C[C@@H](C#N)N(C(=O)[C@H](CC(C)C)N(C)C(=O)OCc3ccccc3)C1)C(=O)N2 [Example 518, benzyl ((S)-1-((3R,5′S)-5′-cyano-5-methyl-2-oxospiro[indoline-3,3′-pyrrolidin]-1′-yl)-4-methyl-1-oxopentan-2-yl)(methyl)carbamate] | < 100 nM
16 | Cc1c(C(=O)N[C@@H](CC2CC2)C(=O)N2C[C@]3(C[C@H]2C#N)C(=O)Nc2ccc(Cl)cc23)sc2cccc(F)c12 [Example 519, N—((S)-1-((3R,5′S)-5-chloro-5′-cyano-2-oxospiro[indoline-3,3′-pyrrolidin]-1′-yl)-3-cyclopropyl-1-oxopropan-2-yl)-4-fluoro-3-methylbenzo[b]thiophene-2-carboxamide] | < 100 nM
17 | N#C[C@@H]1C[C@@]2(CN1C(=O)[C@H](CC1CC1)NC(=O)c1cccc(OC(F)(F)F)c1)C(=O)Nc1ccc(Cl)cc12 [Example 520] | < 100 nM
18 | Cc1c(C(=O)N[C@@H](CC2CC2)C(=O)N2C[C@]3(C[C@H]2C#N)C(=O)Nc2ccc(F)cc23)sc2cccc(F)c12 [Example 521] | < 100 nM
19 | N#C[C@@H]1C[C@@]2(CN1C(=O)[C@H](CC1CC1)NC(=O)c1c(Cl)cccc1Cl)C(=O)Nc1ccc(F)cc12 [Example 522] | 100 to 1000 nM
20 | C[C@H](OC(=O)N[C@@H](CC(C)(C)C)C(=O)N1C[C@]2(C[C@H]1C#N)C(=O)Nc1ccc(F)cc12)c1ccc(F)cc1 [Example 524] | < 100 nM
21 | N#C[C@@H]1C[C@@]2(CN1C(=O)[C@H](CC1CC1)NC(=O)c1c(Cl)cccc1Cl)C(=O)Nc1ccc(Cl)cc12 [Example 525] | < 100 nM
22 | N#C[C@@H]1C[C@@]2(CN1C(=O)[C@H](CC1CC1)NC(=O)c1cccc(OC(F)(F)F)c1)C(=O)Nc1ccc(F)cc12 [Example 526] | < 100 nM
23 | CC(C)C[C@H](NC(=O)O[C@@H](c1ccccc1)C(F)(F)F)C(=O)N1C[C@]2(C[C@H]1C#N)C(=O)Nc1ccc(F)cc12 [Example 527, (S)-2,2,2-trifluoro-1-phenylethyl ((S)-1-((3R,5′S)-5′-cyano-5-fluoro-2-oxospiro[indoline-3,3′-pyrrolidin]-1′-yl)-4-methyl-1-oxopentan-2-yl)carbamate] | < 100 nM
24 | CC(C)C[C@H](NC(=O)c1cc2c(F)cccc2[nH]1)C(=O)N1C[C@]2(C[C@H]1C#N)C(=O)Nc1cccc(Cl)c12 [Example 528] | 100 to 1000 nM

Row | Compound | IC50
25 | Cc1cccc2c1[C@@]1(C[C@@H](C#N)N(C(=O)[C@H](CC(C)C)NC(=O)c3cc4c(F)cccc4[nH]3)C1)C(=O)N2 [Example 529] | 100 to 1000 nM
26 | CC(C)C[C@H](NC(=O)c1cc2c(F)cccc2[nH]1)C(=O)N1C[C@]2(C[C@H]1C#N)C(=O)Nc1cc(F)ccc12 [Example 530] | < 100 nM
27 | CC(C)C[C@H](NC(=O)c1cc2c(F)cccc2[nH]1)C(=O)N1C[C@]2(C[C@H]1C#N)C(=O)Nc1cc(Cl)ccc12 [Example 531] | < 100 nM
28 | CC(C)C[C@H](NC(=O)c1cc2c(F)cccc2[nH]1)C(=O)N1C[C@]2(C[C@H]1C#N)C(=O)Nc1c(Cl)cccc12 [Example 533] | < 100 nM
29 | Cc1cccc2c1NC(=O)[C@]21C[C@@H](C#N)N(C(=O)[C@H](CC(C)C)NC(=O)c2cc3c(F)cccc3[nH]2)C1 [Example 534] | < 100 nM
30 | C=CC(=O)N(C)[C@@H](CC(C)(C)F)C(=O)N1C[C@]2(C[C@H]1C#N)C(=O)Nc1ccccc12 [Example 535, N—((S)-1-((3R,5′S)-5′-cyano-2-oxospiro[indoline-3,3′-pyrrolidin]-1′-yl)-4-fluoro-4-methyl-1-oxopentan-2-yl)-N-methylacrylamide] | 100 to 1000 nM
31 | CN(C(=O)CN1CCOCC1)[C@@H](CC(C)(C)F)C(=O)N1C[C@]2(C[C@H]1C#N)C(=O)Nc1ccccc12 [Example 536] | 100 to 1000 nM
32 | CN(C(=O)CCN1CCOCC1)[C@@H](CC(C)(C)F)C(=O)N1C[C@]2(C[C@H]1C#N)C(=O)Nc1ccccc12 [Example 537] | < 100 nM
33 | CN(C(=O)CCCN1CCOCC1)[C@@H](CC(C)(C)F)C(=O)N1C[C@]2(C[C@H]1C#N)C(=O)Nc1ccccc12 [Example 538] | > 1000 nM
34 | CN(C)CCC(=O)N(C)[C@@H](CC(C)(C)F)C(=O)N1C[C@]2(C[C@H]1C#N)C(=O)Nc1ccccc12 [Example 539, N—((S)-1-((3R,5′S)-5′-cyano-2-oxospiro[indoline-3,3′-pyrrolidin]-1′-yl)-4-fluoro-4-methyl-1-oxopentan-2-yl)-3-(dimethylamino)-N-methylpropanamide] | < 100 nM
35 | CN(C(=O)CCN1CCC1)[C@@H](CC(C)(C)F)C(=O)N1C[C@]2(C[C@H]1C#N)C(=O)Nc1ccccc12 [Example 540] | < 100 nM
36 | CN(C(=O)CCN1CCCC1)[C@@H](CC(C)(C)F)C(=O)N1C[C@]2(C[C@H]1C#N)C(=O)Nc1ccccc12 [Example 541] | < 100 nM
37 | CN(C(=O)CCN1CCCCC1)[C@@H](CC(C)(C)F)C(=O)N1C[C@]2(C[C@H]1C#N)C(=O)Nc1ccccc12 [Example 542] | < 100 nM
38 | CNCCC(=O)N(C)[C@@H](CC(C)(C)F)C(=O)N1C[C@]2(C[C@H]1C#N)C(=O)Nc1ccccc12 [Example 543] | < 100 nM
39 | CCN(CC)CCC(=O)N(C)[C@@H](CC(C)(C)F)C(=O)N1C[C@]2(C[C@H]1C#N)C(=O)Nc1ccccc12 [Example 544] | < 100 nM
40 | C[C@@H]1CCC[C@H](C)N1CCC(=O)N(C)[C@@H](CC(C)(C)F)C(=O)N1C[C@]2(C[C@H]1C#N)C(=O)Nc1ccccc12 [Example 545] | < 100 nM
41 | C[C@@H]1COC[C@H](C)N1CCC(=O)N(C)[C@@H](CC(C)(C)F)C(=O)N1C[C@]2(C[C@H]1C#N)C(=O)Nc1ccccc12 [Example 546] | < 100 nM
42 | CN(C(=O)CCNc1nccs1)[C@@H](CC(C)(C)F)C(=O)N1C[C@]2(C[C@H]1C#N)C(=O)Nc1ccccc12 [Example 547] | < 100 nM
43 | N#C[C@@H]1C[C@@]2(CN1C(=O)[C@H](CN1CCCC1=O)NC(=O)OCc1ccccc1)C(=O)Nc1ccccc12 [Example 548, benzyl ((S)-1-((3R,5′S)-5′-cyano-2-oxospiro[indoline-3,3′-pyrrolidin]-1′-yl)-1-oxo-3-(2-oxopyrrolidin-1-yl)propan-2-yl)carbamate] | 100 to 1000 nM
44 | CC(C)C[C@@H](C(=O)N1C[C@]2(C[C@H]1C#N)C(=O)Nc1ncccc12)N(C)C(=O)c1cc2c(F)cc(F)cc2[nH]1 [Example 549] | < 100 nM
45 | CC(C)C[C@@H](C(=O)N1C[C@]2(C[C@H]1C#N)C(=O)Nc1ncccc12)N(C)C(=O)c1cc2c(F)cc(F)c(F)c2[nH]1 [Example 550] | < 100 nM
46 | CN(C(=O)c1cc2c(F)cc(F)c(F)c2[nH]1)[C@@H](CC(C)(C)F)C(=O)N1C[C@]2(C[C@H]1C#N)C(=O)Nc1ncccc12 [Example 551] | < 100 nM
47 | CN(C(=O)c1cc2c(F)cc(F)c(F)c2[nH]1)[C@@H](CC(C)(C)F)C(=O)N1C[C@]2(C[C@H]1C#N)C(=O)Nc1cccnc12 [Example 552] | < 100 nM
